Assay results taken from patent publication US20110166206A1, “UBIQUILIN REGULATION OF PRESENILIN ENDOPROTEOLYSIS, AND SUPPRESSION OF POLYGLUTAMINE-INDUCED TOXICITY IN CELLS” (UNIVERSITY OF MARYLAND BIOTECHNOLOGY INSTITUTE, priority 2005, published 2011).

Assays:
endogenous PS1 NTF = test: UBQLN overexpression in wild-type HEK293 cells, endogenous PS1 NTF immunoblot; assay type: cell-based; conditions: normal HEK293 cells
Experimental: (C) Endogenous PS fragment levels were analyzed in HEK293 cells that were transfected with increasing amounts of UBQLN1 or UBQLN2 expression plasmids. Equivalent amounts of protein lysates were separated by 10% SDS-PAGE and immunoblotted with anti-PS1 NTF antibody. The filter was then reprobed with anti-ubiquilin antibody to ensure overexpression of UBQLN and with an anti-actin antibody to ensure equal protein loading. Overexpression of UBQLN decreases PS1 NTF levels and the extent of reduction was quantified again by densitometric analysis. Graph is quantification of untransfected and […] UBQLN cDNA plasmid transfected lanes.
Preparation of protein lysates, SDS-PAGE and immunoblotting of proteins were described previously. Primary antibodies used were rabbit anti-PS2 loop and rabbit anti-PS2 NH,-terminus, both raised to GST-PS2 fusion proteins; rabbit anti-ubiquilin [43] which reacts with UBQLN1 and UBQLN2 polypeptides; rat anti-PS1 NH2,-terminus (Chemicon International, Temecula, Calif.); rabbit anti-PS1 loop raised to GST-PS1 fusion proteins; goat anti-p27 and goat anti-actin (Santa Cruz Biotechnology, Santa Cruz, Calif.); mouse monoclonal anti-tubulin (Sigma-Aldrich, St. Louis, Mo.); rabbit anti-nicastrin (Abeam, Cambridge, Mass.), rabbit anti-Pen-2 (Zymed, San Francisco, Calif.); and rabbit anti-Aph-la (Covance, Berkeley, Calif.). […]

PS1 and PS2 NTF and CTF = test: MG132 treatment of UBQLN-transfected PS1 and PS2 stable cell lines, fragment immunoblot; assay type: cell-based; conditions: UBQLN1 transfected vs untransfected, MG132
Experimental: FIG. 3. […] (A) PS1 cells lines that were either not induced (lanes 1 and 3) or induced with PonA (lanes 2 and 4) and either left untransfected (lanes 1 and 2) or transfected with UBQLN1 expression plasmids (lanes 3 and 4) were treated for 7 h with MG132 after which protein lysates were collected and analyzed by immunoblotting. […] For clarification, if UBQLN did increase the turnover rate then by blocking degradation, turnover would be stopped and PS fragment levels would be similar, or increase, relative to that of untransfected cells. […] Densitometric analysis was used to quantify the extent of reduction. Each experiment was repeated more than three times and similar trends were observed.
(B) Same experiment and results as described in (A) except that PS2 inducible cell lines were used to examine PS2 NTF and CTF levels. […] UBQLN exerts greater effects on PS2 probably because it interacts more strongly with PS2, see [43].
HeLa and HEK293 cells were grown in DMEM supplemented with 10% FBS. PS1 and S2 inducible cell lines were generated by transfection of the pERV-expressing HEK293 cell line (Stratgene, IaIolla, Calif.) with FL human PS2 cDNA under the control of ponasteroneA (PonA)-inducible cassette in plasmid pEGSH (Stratagene). Stable integration of the pEGSH plasmid was achieved by selection for hygromycin resistance. […]

With “UBQLN1: PS-interacting protein ubiquilin-1, overexpressed in cells from a cDNA expression plasmid” the “reduction of endogenous PS1 NTF levels” value (endogenous PS1 NTF) was “approximately 1.7 fold” and the “PS1 and PS2 NTF and CTF levels after MG132 treatment” value (PS1 and PS2 NTF and CTF) was “remained reduced”.
